ChEMBL document CHEMBL5346969 (J Med Chem, 2023)
Calls of active or inactive are those of the source. No cut-off for these calls is given here.

What was measured:
[1] = molecular target: T1, Phospholipid hydroperoxide glutathione peroxidase GPX4 (Homo sapiens) (UniProt P36969); assay: Binding affinity to GPX4 in human MDA-MB-231 cells assessed as decrease in apprent aggregation temperature at 1 uM incubated for 2 hrs by CESTA analysis (Rvb=58.3 +/- 0.7 degreeC); format: cell-based
T1 sequence (whole entry): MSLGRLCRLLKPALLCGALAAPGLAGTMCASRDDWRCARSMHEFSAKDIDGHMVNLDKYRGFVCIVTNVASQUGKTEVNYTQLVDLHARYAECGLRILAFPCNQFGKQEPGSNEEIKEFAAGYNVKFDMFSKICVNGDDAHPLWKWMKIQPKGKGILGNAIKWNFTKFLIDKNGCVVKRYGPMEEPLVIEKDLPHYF

[2] = molecular target: T1, Phospholipid hydroperoxide glutathione peroxidase GPX4 (Homo sapiens); assay: Binding affinity to GPX4 (unknown origin) at Cys66 residue assessed as change in mass of single charged b4+ ion at 100 uM incubated for 1.5 hrs by SDS-PAGE based LC-MS/MS analysis
[3] = molecular target: T1, Phospholipid hydroperoxide glutathione peroxidase GPX4 (Homo sapiens); assay: Binding affinity to GPX4 (unknown origin) at Cys66 residue assessed as change in mass of single charged y2+ ion at 100 uM incubated for 1.5 hrs by SDS-PAGE based LC-MS/MS analysis
MDA-MB-231 [4] = assay: Induction of ferroptosis in siRNA mediated GPX4 knockdown human MDA-MB-231 cells with assessed as change in GPX4 protein expression level at 20 nM incubated for 8 hrs by Western blot analysis; format: functional, cell-based
MDA-MB-231 [5] = assay: Induction of ferroptosis in siRNA mediated GPX4 knockdown human MDA-MB-231 cells with assessed as change in xCT protein expression level at 20 nM incubated for 8 hrs by Western blot analysis; format: functional, cell-based
MDA-MB-231 [6] = assay: Induction of ferroptosis in human MDA-MB-231 cells with assessed as upregulation of GPX4 protein expression level at 5 to 20 nM incubated for <6 hrs by Western blot analysis; format: functional, cell-based; settings: dose 5-20 nM
[7] = Half life in rat at 10 mg/kg, ip and measured upto 24 hrs by LC-MS/MS analysis; format: ADME, organism-based; settings: in vivo
[8] = Toxicity in immunodeficient BALB/c mouse assessed as bone marrow suppression by measuring WBC level at 20 mg/kg, ip for 14 days by whole blood analysis; format: organism-based; settings: in vivo, 336 h, time 14 day
[9] = Toxicity in immunodeficient BALB/c mouse assessed as bone marrow suppression by measuring RBC level at 20 mg/kg, ip for 14 days by whole blood analysis; format: organism-based, Erythrocyte; settings: in vivo, 336 h, time 14 day
[10] = Toxicity in immunodeficient BALB/c mouse assessed as bone marrow suppression by measuring HGB level at 20 mg/kg, ip for 14 days by whole blood analysis; format: organism-based; settings: in vivo, 336 h, time 14 day

Row | Compound | T [1] | Activity [2] | Activity [3] | Activity (MDA-MB-231 [4]) | Activity (MDA-MB-231 [5]) | Activity (MDA-MB-231 [6]) | t1/2 [7] | Activity [8] | Activity [9] | Activity [10]
1 | COc1cc(N(C(=O)CCl)c2ccc3c(c2)OCCO3)cc(OC)c1F | 51.8 °C | inactive | inactive | inactive | inactive | Active | 1.9 h | – | – | –
2 | COc1cc(N(C(=O)CBr)c2ccc3c(c2)OCCO3)cc(OC)c1F | – | – | – | – | – | – | – | Toxic | Toxic | Toxic
